Reference: patent US9718828B2 (MERCK SHARP & DOHME CORP., priority 2011, dated 2017)
Structures can show the parent of a compound that is named as a salt. Where two headings read alike, the source gives them in different places.

Molecular target: Btk enzyme (His-Btk) (Homo sapiens (Human), UniProt Q06187)
Assay: Btk enzyme activity, IMAP fluorescence polarization assay (Assay Method A)
[1] = read-out: EC50 Btk activity values - Assay Method A, IMAP-FP, 60 min pre-incubation, 5 μM ATP, class 100-1000 is given as ≧100 nM-<1 μM

Btk enzyme (His-Btk), sequence (Q06187 whole entry): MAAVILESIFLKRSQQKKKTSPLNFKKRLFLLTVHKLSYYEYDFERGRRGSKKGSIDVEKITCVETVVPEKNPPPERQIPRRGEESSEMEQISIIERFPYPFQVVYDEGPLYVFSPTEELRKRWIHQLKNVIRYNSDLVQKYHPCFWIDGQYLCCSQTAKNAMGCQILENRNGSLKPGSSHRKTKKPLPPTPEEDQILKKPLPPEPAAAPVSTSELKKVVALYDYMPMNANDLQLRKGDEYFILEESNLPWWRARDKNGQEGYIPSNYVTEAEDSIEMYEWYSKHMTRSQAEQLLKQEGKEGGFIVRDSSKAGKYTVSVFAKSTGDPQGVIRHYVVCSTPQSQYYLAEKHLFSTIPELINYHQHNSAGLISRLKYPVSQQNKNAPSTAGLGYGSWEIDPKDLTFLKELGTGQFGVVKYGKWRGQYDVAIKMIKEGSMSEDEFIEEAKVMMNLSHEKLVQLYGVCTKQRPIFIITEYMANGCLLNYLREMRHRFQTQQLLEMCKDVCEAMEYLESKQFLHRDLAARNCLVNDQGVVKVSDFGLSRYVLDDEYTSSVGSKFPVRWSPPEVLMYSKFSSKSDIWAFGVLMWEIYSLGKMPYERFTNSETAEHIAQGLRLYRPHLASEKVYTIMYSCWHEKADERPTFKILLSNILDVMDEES

| EC50 [1] [µM] | EC50 [µM] | Structure (SMILES) |
| --- | --- | --- |
| < 0.01 |  | CCC(=O)C(=O)N1CCC[C@@H](c2nc(-c3ccc(C(=O)Nc4cc(C5CC5)ccn4)cc3)c3c(N)nccn23)C1 [Example 114, (R)-4-(8-amino-3-(1-(2-oxobutanoyl)piperidin-3 yl)imidazo[1,5-a]pyrazin-1-yl)-N-(4-cyclopropylpyridin-2-yl)benzamide] |
|  | < 0.01 | CC(C)C(=O)N1CCOC(c2nc(-c3ccc(C(=O)Nc4cc(C(F)(F)F)ccn4)cc3)c3c(N)nccn23)C1 (centres unmarked) [Example 173, 4-(8-amino-3-(4-isobutyrylmorpholin-2-yl)imidazo[1,5-a]pyrazin-1-yl)-N-(4-(trifluoromethyl)pyridin-2-yl)benzamide] |
| < 0.01 |  | C[C@H]1CC[C@@H](c2nc(-c3ccc(C(=O)Nc4cc(C(F)(F)F)ccn4)cc3)c3c(N)nccn23)CN1C(=O)C1CC1 (relative stereo) [Example 202, 4-(8-amino-3-((cis)-1-(cyclopropanecarbonyl)-6-methylpiperidin-3-yl)imidazo[1,5-a]pyrazin-1-yl)-N-(4-(trifluoromethyl)pyridin-2-yl)benzamide, TFA salt] |
| < 0.01 |  | CCCc1ccnc(NC(=O)c2ccc(-c3nc(C4CCOC(C)(C)C4)n4ccnc(N)c34)cc2)c1 (centres unmarked) [Example 36, 4-(8-amino-3-(2,2-dimethyltetrahydro-2H-pyran-4-yl)imidazo[1,5-a]pyrazin-1-yl)-N-(4-propylpyridin-2-yl)benzamide] |
| < 0.01 |  | CCC(=O)N[C@@H]1CCC[C@@H](c2nc(-c3ccc(C(=O)Nc4cc(C(F)(F)F)ccn4)cc3)c3c(N)nccn23)C1 (relative stereo) [Example 170, 4-(8-amino-3-((trans)-3-propionamidocyclohexyl)imidazo [1,5-a]pyrazin-1-yl)-N-(4-(trifluoromethyl)pyridin-2-yl)benzamide] |
|  | 0.1 to 1 | CCN(CC)c1nc(-c2ccc(C(=O)Nc3ccccn3)cc2)c2c(N)nccn12 [Example 213, 4-(8-amino-3-(diethylamino)imidazo[1,5-a]pyrazin-1-yl)-N-(pyridin-2-yl)benzamide] |
|  | 0.01 to 0.1 | Nc1nccn2c([C@@H]3CCCN(C(=O)[C@H]4CC[C@H](N)CC4)C3)nc(-c3ccc(C(=O)Nc4ccccn4)cc3)c12 [Example 55, 4-(8-amino-3-((R)-1-((trans)-4-aminocyclohexanecarbonyl)piperidin-3-yl)imidazo[1,5-a]pyrazin-1-yl)-N-(pyridin-2-yl)benzamide, TFA salt] |
|  | < 0.01 | CCOC(=O)N1C[C@H](c2nc(-c3ccc(C(=O)Nc4cc(C(F)(F)F)ccn4)cc3)c3c(N)nccn23)CC[C@H]1C (relative stereo) [Example 182, (trans)-ethyl 5-(8-amino-1-(4-(4-(trifluoromethyl)pyridin-2-ylcarbamoyl)phenyl)imidazo [1,5-a]pyrazin-3-yl)-2-methylpiperidine-1-carboxylate, TFA salt] |

Continued, compound first:

| Structure (SMILES) | EC50 [1] [µM] | EC50 [µM] |
| --- | --- | --- |
| Nc1nccn2c(N3CCCC(C(=O)NC[C@@H]4CCCO4)C3)nc(-c3ccc(C(=O)Nc4cc(C(F)(F)F)ccn4)cc3)c12 (stereo partly drawn) [Example 231, 1-(8-amino-1-(4-(4-(trifluoromethyl)pyridin-2-ylcarbamoyl)phenyl)imidazo[1,5-a]pyrazin-3-yl)-N-(((S)-tetrahydrofuran-2-yl)methyl)piperidine-3-carboxamide, TFA salt] | < 0.01 |  |
| CC1CC1C(=O)N1CCC[C@@H](c2nc(-c3ccc(C(=O)Nc4cc(C5CC5)ccn4)cc3)c3c(N)nccn23)C1 (stereo partly drawn) [Example 62, 4-(8-amino-3-((3R)-1-(2-methylcyclopropanecarbonyl)piperidin-3-yl)imidazo[1,5-a]pyrazin-1-yl)-N-(4-cyclopropylpyridin-2-yl)benzamide] |  | < 0.01 |
| CCNC(=O)N1CCC[C@@H](n2nc(-c3ccc(C(=O)Nc4cc(C(F)(F)F)ccn4)cc3)c3c(N)ncnc32)C1 [Example 268, (R)-3-(4-amino-3-(4-(4-(trifluoromethyl)pyridin-2-ylcarbamoyl)phenyl)-1H-pyrazolo[3,4-d]pyrimidin-1-yl)-N-ethylpiperidine-1-carboxamide] | < 0.01 |  |
| Cc1nc(-c2ccc(C(=O)Nc3cc(C(F)(F)F)ccn3)cc2)c2c(N)ncc(C(=O)N(C)C)n12 [Example 293, 8-amino-N,N,3-trimethyl-1-(4-(4-(trifluoromethyl)pyridin-2-ylcarbamoyl)phenyl)imidazo[1,5-a]pyrazine-5-carboxamide] |  | ≥ 1 |
| Nc1nccn2c([C@@H]3CCCN(C(=O)C(=O)c4ccco4)C3)nc(-c3ccc(C(=O)Nc4cc(C5CC5)ccn4)cc3)c12 [Example 123, (R)-4-(8-amino-3-(1-(2-(furan-2-yl)-2-oxoacetyl)piperidin-3-yl)imidazo[1,5-a]pyrazin-1-yl)-N-(4-cyclopropylpyridin-2-yl)benzamide] |  | 0.01 to 0.1 |
| Nc1nccn2c([C@@H]3CCCN(CC4CCOC4)C3)nc(-c3ccc(C(=O)Nc4cc(C(F)(F)F)ccn4)cc3)c12 (stereo partly drawn) [Example 142, 4-(8-amino-3-((3R)-1-((tetrahydrofuran-3-yl)methyl)piperidin-3-yl)imidazo[1,5-a]pyrazin-1-yl)-N-(4-(trifluoromethyl)pyridin-2-yl)benzamide, TFA salt] | < 0.01 |  |
| CC1(C(=O)N2CCOC(c3nc(-c4ccc(C(=O)Nc5cc(C(F)(F)F)ccn5)cc4)c4c(N)ncc(Cl)n34)C2)COC1 (centres unmarked) [Example 315, 4-(8-amino-5-chloro-3-(4-(3-methyloxetane-3-carbonyl)morpholin-2-yl)imidazo[1,5-a]pyrazin-1-yl)-N-(4-(trifluoromethyl)pyridin-2-yl)benzamide] | < 0.01 |  |
| COCCOCCOCCOCCC(=O)N1CCC[C@@H](n2nc(-c3ccc(C(=O)Nc4cc(C(F)(F)F)ccn4)cc3)c3c(N)ncnc32)C1 [Example 264, (R)-4-(1-(1-2,5,8,11-tetraoxatetradecanepiperidin-3-yl)-4-amino-1H-pyrazolo[3,4-d]pyrimidin-3-yl)-N-(4-(trifluoromethyl)pyridin-2-yl)benzamide] | < 0.01 |  |
| Nc1nccn2c([C@@H]3CCCN(CC4CCOC4)C3)nc(-c3ccc(C(=O)Nc4cc(C5CC5)ccn4)cc3)c12 (stereo partly drawn) [Example 145, 4-(8-amino-3-((3R)-1-((tetrahydrofuran-3-yl)methyl)piperidin-3-yl)imidazo[1,5-a]pyrazin-1-yl)-N-(4-cyclopropylpyridin-2-yl)benzamide, TFA salt] |  | 0.01 to 0.1 |
| Nc1nccn2c(N3CCC[C@H](NC(=O)C4CC4)C3)nc(-c3ccc(C(=O)Nc4cc(C(F)(F)F)ccn4)cc3)c12 [Example 222, (S)-4-(8-amino-3-(3-(cyclopropanecarboxamido)piperidin-1-yl)imidazo[1,5-a]pyrazin-1-yl)-N-(4-(trifluoromethyl)pyridin-2-yl)benzamide] | < 0.01 |  |
| CCCc1ccnc(NC(=O)c2ccc(-c3nc([C@H]4CC[C@H](O)CC4)n4ccnc(N)c34)cc2F)c1 [Example 13, 4-(8-amino-3-((trans)-4-hydroxycyclohexyl)imidazo[1,5-a]pyrazin-1-yl)-2-fluoro-N-(4-propylpyridin-2-yl)benzamide] | < 0.01 |  |
| N#Cc1ccnc(NC(=O)c2ccc(-c3nc(C4CCc5[nH]nc(C6CC6)c5C4)n4ccnc(N)c34)cc2)c1 (centres unmarked) [Example 249, 4-(8-amino-3-(3-cyclopropyl-4,5,6,7-tetrahydro-1H-indazol-5-yl)imidazo[1,5-a]pyrazin-1-yl)-N-(4-cyanopyridin-2-yl)benzamide, TFA salt] | < 0.01 |  |
